Reference: patent US10618901B2 (GlaxoSmithKline Intellectual Property Development Limited, priority 2014, dated 2020)

Target: T1, LRRK2 Ser935 phosphorylation in SH-SY5Y cells over-expressing recombinant full length LRRK2 (Homo sapiens, UniProt Q5S007)
T1 construct: A BacMam virus expressing full length recombinant LRRK2 was purchased from Invitrogen; host or cells: SH-SY5Y (BacMam transduction)
Assay: Recombinant cellular LRRK2 AlphaScreen assay
Format: cell-based
Settings: read-out: pIC50 in the recombinant cellular LRRK2 alphaScreen assay (converted)
Source text: Recombinant Cellular LRRK2 AlphaScreen Assay
To determine the activity of compounds against LRRK2 kinase activity in cells, the observed LRRK2 kinase-dependent modulation of LRRK2 Ser 935 phosphorylation (Dzamko et al., 2010, Biochem. J. 430: 405-413) was utilized to develop a quantitative 384 well plate-based immunoassay of LRRK2 Ser935 phosphorylation in the human neuroblastoma cell line SH-SY5Y, engineered to over-express recombinant full length LRRK2 protein.
A BacMam virus expressing full length recombinant LRRK2 was purchased from Invitrogen and amplified by inoculation of SF-9 cells at MOI 0.3 for 4-5 days in Sf-900 III SFM medium supplemented with 3% fetal bovine serum. Infected cell cultures were then centrifuged at 2000 g for 20 minutes, viral supernatant titer determined by anti-gp64 plaque assay and stored at 4° C.
Affinity-purified anti-phospho LRRK2 Ser935 sheep polyclonal antibody (Dzamko et al., 2010, Biochem. J. 430: 405-413) was biotinylated by standard methods (PerkinElmer). Anti-LRRK2 rabbit polyclonal antibody was purchased from Novus Biologicals. AlphaScreen Protein A IgG Kit (including acceptor and donor beads) was purchased from Perkin Elmer.
SH-SY5Y cells were grown in DMEM/F12 medium with 10% dialysed fetal bovine serum and harvested by treatment with 0.5% trypsin-EDTA for 5 minutes at 37° C. followed by centrifugation at 1000 rpm for 4 minutes. The cell pellet was resuspended in Opti-MEM reduced serum media (Invitrogen) at 200,000 cells/ml and mixed with the BacMam LRRK2 virus at M01=50. 50 μl cell solutions were then dispensed to each well of a 384-well plate and incubated at 37° C., 5% CO2 for 24 hours.
Serial dilutions of test compounds were prepared in Opti-MEM reduced serum media (Invitrogen) and 5.6 ul transferred from compound plate to cell assay plate to achieve a top final assay concentration of 10 uM. DMSO was used in certain wells as controls. Cells were incubated at 37° C., 5% CO2 for 60 minutes. The medium was then removed and cells lysed by addition of 20 ul cell lysis buffer (Cell Signaling Technology) and incubation at 4° C. for 20 minutes. 10 ul of antibody/acceptor bead mix [(1/1000 biotinylated-pS935 LRRK2 antibody, 1/1000 total-LRRK2 antibody, 1/100 Acceptor beads in AlphaScreen detection buffer (25 mM Hepes (pH 7.4), 0.5% Triton X-100, 1 mg/ml Dextran 500 and 0.1% BSA)] was then added to each well and plates incubated for 2 hours at ambient temperature in the dark. 10 μl of donor beads solution (1/33.3 donor beads in AlphaScreen detection buffer) was then added to each well. Following incubation for a further 2 hours at ambient temperature in the dark, plates were read on an EnVision™ plate reader at emission 520-620 nm with excitation 680 nm. Dose response curve data was based on sigmoidal dose-response model.

T1 sequence (Q5S007 whole entry): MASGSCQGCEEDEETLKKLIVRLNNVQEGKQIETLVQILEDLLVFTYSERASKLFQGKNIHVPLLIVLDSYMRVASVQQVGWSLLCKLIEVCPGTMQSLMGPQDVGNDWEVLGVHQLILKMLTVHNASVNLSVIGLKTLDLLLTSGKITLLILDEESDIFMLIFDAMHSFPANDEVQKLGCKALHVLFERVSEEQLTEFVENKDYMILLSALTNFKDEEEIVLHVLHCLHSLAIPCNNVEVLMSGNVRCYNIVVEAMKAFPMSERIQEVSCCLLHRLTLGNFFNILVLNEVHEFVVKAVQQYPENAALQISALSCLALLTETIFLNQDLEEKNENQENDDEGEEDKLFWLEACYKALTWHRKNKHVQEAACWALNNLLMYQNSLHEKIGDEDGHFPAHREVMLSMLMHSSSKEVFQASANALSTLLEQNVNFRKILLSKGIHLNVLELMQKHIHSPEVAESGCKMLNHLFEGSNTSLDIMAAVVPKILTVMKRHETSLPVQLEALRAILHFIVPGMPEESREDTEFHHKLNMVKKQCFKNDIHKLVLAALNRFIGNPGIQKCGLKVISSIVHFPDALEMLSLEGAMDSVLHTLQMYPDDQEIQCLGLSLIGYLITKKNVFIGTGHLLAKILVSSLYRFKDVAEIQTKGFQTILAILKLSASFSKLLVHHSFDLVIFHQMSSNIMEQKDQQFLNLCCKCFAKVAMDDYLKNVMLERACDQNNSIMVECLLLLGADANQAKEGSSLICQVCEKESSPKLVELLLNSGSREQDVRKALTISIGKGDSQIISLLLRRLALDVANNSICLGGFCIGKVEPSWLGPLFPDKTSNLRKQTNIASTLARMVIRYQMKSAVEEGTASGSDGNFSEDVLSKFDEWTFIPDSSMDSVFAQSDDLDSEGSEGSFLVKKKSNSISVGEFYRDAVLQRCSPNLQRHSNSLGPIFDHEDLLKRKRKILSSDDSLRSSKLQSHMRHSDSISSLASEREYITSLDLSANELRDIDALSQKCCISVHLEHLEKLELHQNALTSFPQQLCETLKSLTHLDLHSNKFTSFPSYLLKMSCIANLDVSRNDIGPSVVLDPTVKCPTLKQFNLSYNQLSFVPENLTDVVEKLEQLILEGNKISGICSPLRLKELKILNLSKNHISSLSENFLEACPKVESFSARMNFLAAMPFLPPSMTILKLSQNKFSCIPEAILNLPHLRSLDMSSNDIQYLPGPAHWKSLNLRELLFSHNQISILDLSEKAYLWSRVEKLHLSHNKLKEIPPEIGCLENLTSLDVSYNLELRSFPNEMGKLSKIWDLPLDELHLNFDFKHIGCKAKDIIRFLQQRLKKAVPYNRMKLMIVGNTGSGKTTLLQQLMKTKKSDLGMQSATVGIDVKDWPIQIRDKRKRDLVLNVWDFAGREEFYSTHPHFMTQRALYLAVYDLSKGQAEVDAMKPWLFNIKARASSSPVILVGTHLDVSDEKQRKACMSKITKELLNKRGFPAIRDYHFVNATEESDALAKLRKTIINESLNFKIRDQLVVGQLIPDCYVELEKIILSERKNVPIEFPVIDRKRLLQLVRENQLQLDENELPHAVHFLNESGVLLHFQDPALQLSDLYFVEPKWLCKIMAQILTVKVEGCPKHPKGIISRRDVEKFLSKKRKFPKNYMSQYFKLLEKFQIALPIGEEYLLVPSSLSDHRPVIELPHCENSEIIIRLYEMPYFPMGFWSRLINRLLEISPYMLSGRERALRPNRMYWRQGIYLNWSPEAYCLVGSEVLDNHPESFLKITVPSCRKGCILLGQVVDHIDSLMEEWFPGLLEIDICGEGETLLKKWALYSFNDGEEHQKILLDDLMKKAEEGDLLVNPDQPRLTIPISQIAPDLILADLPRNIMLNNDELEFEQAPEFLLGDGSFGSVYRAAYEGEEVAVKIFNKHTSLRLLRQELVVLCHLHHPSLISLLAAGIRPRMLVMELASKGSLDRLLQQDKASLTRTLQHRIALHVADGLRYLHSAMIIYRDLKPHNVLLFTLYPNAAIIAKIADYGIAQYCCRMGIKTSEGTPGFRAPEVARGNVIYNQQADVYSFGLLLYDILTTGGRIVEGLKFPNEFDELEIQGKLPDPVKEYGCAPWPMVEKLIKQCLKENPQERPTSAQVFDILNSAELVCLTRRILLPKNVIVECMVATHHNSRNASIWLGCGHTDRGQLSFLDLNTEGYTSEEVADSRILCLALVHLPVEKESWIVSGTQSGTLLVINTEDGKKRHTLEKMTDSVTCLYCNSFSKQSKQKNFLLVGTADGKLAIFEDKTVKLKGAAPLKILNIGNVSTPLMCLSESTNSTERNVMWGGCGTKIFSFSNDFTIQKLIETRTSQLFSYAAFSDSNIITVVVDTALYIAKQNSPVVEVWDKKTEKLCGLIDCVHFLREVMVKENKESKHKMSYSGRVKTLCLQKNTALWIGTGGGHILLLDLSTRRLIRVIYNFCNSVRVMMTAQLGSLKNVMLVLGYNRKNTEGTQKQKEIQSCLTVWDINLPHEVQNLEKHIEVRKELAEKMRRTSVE

| IC50 | SMILES |
| --- | --- |
| ≤ 100 nM | CCOc1nc(Nc2cnn(CC3COC3)c2Cl)nc2[nH]ccc12 [Example E28, N-(5-chloro-1-(oxetan-3-yl-methyl)-1H-pyrazol-4-yl)-4-ethoxy-7H-pyrrolo-[2,3-d]pyrimidin-2-amine] |
| ≤ 100 nM | CCOc1nc(Nc2cnn(CCN3CCOC[C@@H]3C)c2C)nc2[nH]ccc12 [Example E82, (S)-4-ethoxy-N-(5-methyl-1-(2-(3-methylmorpholino)ethyl)-1H-pyrazol-4-yl)-7H-pyrrolo [2,3-d]pyrimidin-2-amine] |
| ≤ 100 nM | CCOc1nc(Nc2cnn(CCF)c2C)nc2[nH]ccc12 [Example E26, 4-ethoxy-N-(1-(2-fluoroethyl)-5-methyl-1H-pyrazol-4-yl)-7H-pyrrolo-[2,3-d]-pyrimidin-2-amine] |
| ≤ 100 nM | CCOc1nc(Nc2cnn(C3(C)CC(N4CCOCC4)C3)c2C)nc2[nH]ccc12 (stereo not shown) [Example E137, 4-ethoxy-N-(5-methyl-1-(1-methyl-3-morpholinocyclobutyl)-1H-pyrazol-4-yl)-7H-pyrrolo[2,3-d]pyrimidin-2-amine] |
| ≤ 100 nM | CCOc1nc(Nc2cnn(C3CCN(C4COC4)C3)c2C)nc2[nH]ccc12 (stereo not shown) [Example E66, 4-Ethoxy-N-(5-methyl-1-(1-(oxetan-3-yl)pyrrolidin-3-yl)-1H-pyrazol-4-yl)-7H-pyrrolo[2,3-d]pyrimidin-2-amine] |
| ≤ 100 nM | CCOc1nc(Nc2cnn(CCF)c2C)nc2[nH]cc(C#N)c12 [Example E50, 4-ethoxy-2-((1-(2-fluoroethyl)-5-methyl-1H-pyrazol-4-yl)-amino)-7H-pyrrolo-[2,3-d]-pyrimidine-5-carbonitrile] |
| ≤ 100 nM | CCOc1nc(Nc2cnn(C3CCOCC3)c2C)nc2[nH]ccc12 [Example E11, 4-ethoxy-N-(5-methyl-1-(tetrahydro-2H-pyran-4-yl)-1H-pyrazol-4-yl)-7H-pyrrolo-[2,3-d]-pyrimidin-2-amine] |
| ≤ 100 nM | CCOc1nc(Nc2cnn(C)c2Cl)nc2[nH]ccc12 [Example E4, N-(5-chloro-1-methyl-1H-pyrazol-4-yl)-4-ethoxy-7H-pyrrolo-[2,3-d]-pyrimidin-2-amine] |
| ≤ 100 nM | CCOc1nc(Nc2cn(CCOC)nc2C)nc2[nH]cc(C#N)c12 [Example E48, 4-ethoxy-2-((1-(2-methoxyethyl)-3-methyl-1H-pyrazol-4-yl)-amino)-7H-pyrrolo-[2,3-d]-pyrimidine-5-carbonitrile] |
| ≤ 100 nM | CCOc1nc(Nc2cnn(C3CCC(O)C3)c2Cl)nc2[nH]ccc12 (racemic) [Example E101, (±)-trans-3-(5-chloro-4-((4-ethoxy-7H-pyrrolo[2,3-d]pyrimidin-2-yl)amino)-1H-pyrazol-1-yl) cyclopentanol] |
| ≤ 100 nM | CCOc1nc(Nc2cnn(C3CCN(C4COC4)CC3F)c2Cl)nc2[nH]ccc12 (single isomer, unassigned) [Example E106, cis-N-(5-chloro-1-(3-fluoro-1-(oxetan-3-yl)piperidin-4-yl)-1H-pyrazol-4-yl)-4-ethoxy-7H-pyrrolo[2,3-d]pyrimidin-2-amine] |
| ≤ 100 nM | CCOc1nc(Nc2cnn([C@H]3CC[C@@H](O)CC3)c2C)nc2[nH]ccc12 [Example E54, cis-4-(4-((4-ethoxy-7H-pyrrolo[2,3-d]pyrimidin-2-yl)amino)-5-methyl-1H-pyrazol-1-yl)-cyclohexanol] |
| ≤ 100 nM | CCOc1nc(Nc2cnn(C3CCN(C4COC4)CC3F)c2C)nc2[nH]ccc12 (single isomer, unassigned) [Example E102, cis-4-ethoxy-N-(1-(3-fluoro-1-(oxetan-3-yl)piperidin-4-yl)-5-methyl-1H-pyrazol-4-yl)-7H-pyrrolo[2,3-d]pyrimidin-2-amine] |
| ≤ 100 nM | CCOc1nc(Nc2cnn(C3CCN(C4COC4)CC3(F)F)c2Cl)nc2[nH]ccc12 (single isomer, unassigned) [Example E133, N-(5-chloro-1-(3,3-difluoro-1-(oxetan-3-yl)piperidin-4-yl)-1H-pyrazol-4-yl)-4-ethoxy-7H-pyrrolo[2,3-d]pyrimidin-2-amine] |
| ≤ 100 nM | CCOc1nc(Nc2cn(CCF)nc2C)nc2[nH]ccc12 [Example E27, 4-ethoxy-N-(1-(2-fluoroethyl)-3-methyl-1H-pyrazol-4-yl)-7H-pyrrolo-[2,3-d]-pyrimidin-2-amine] |
| ≤ 100 nM | CCOc1nc(Nc2cnn(C(C)(C)CO)c2C)nc2[nH]ccc12 [Example E65, 2-(4-((4-ethoxy-7H-pyrrolo-[2,3-d]pyrimidin-2-yl)amino)-5-methyl-1H-pyrazol-1-yl)-2-methylpropan-1-ol] |
| ≤ 100 nM | CCOc1nc(Nc2cnn(CCN3CC[C@H](F)C3)c2C)nc2[nH]ccc12 [Example E64, (S)-4-ethoxy-N-(1-(2-(3-fluoropyrrolidin-1-yl)ethyl)-5-methyl-1H-pyrazol-4-yl)-7H-pyrrolo[2,3-d]pyrimidin-2-amine] |
| ≤ 100 nM | CCOc1nc(Nc2cnn(CC(C)(C)O)c2Cl)nc2[nH]ccc12 [Example E15, 1-(5-chloro-4-((4-ethoxy-7H-pyrrolo-[2,3-d]pyrimidin-2-yl)amino)-1H-pyrazol-1-yl)-2-methylpropan-2-ol] |
| ≤ 100 nM | CCOc1nc(Nc2cnn(C3CNCCC3(F)F)c2Cl)nc2[nH]ccc12 (single isomer, unassigned) [Example E125, N-(5-chloro-1-(4,4-difluoropiperidin-3-yl)-1H-pyrazol-4-yl)-4-ethoxy-7H-pyrrolo [2,3-d] pyrimidin-2-amine] |
| ≤ 100 nM | CCOc1nc(Nc2cnn(C3CCCOC3)c2C)nc2[nH]ccc12 (single isomer, unassigned) [Example E30, 4-ethoxy-N-(5-methyl-1-(tetrahydro-2H-pyran-3-yl)-1H-pyrazol-4-yl)-7H-pyrrolo-[2,3-d]pyrimidin-2-amine] |
| ≤ 100 nM | CCOc1nc(Nc2cnn(CCN3CCO[C@H](C)C3)c2C)nc2[nH]ccc12 [Example E83, (R)-4-ethoxy-N-(5-methyl-1-(2-(2-methylmorpholino)ethyl)-1H-pyrazol-4-yl)-7H-pyrrolo [2,3-d]pyrimidin-2-amine] |
| ≤ 100 nM | CCOc1nc(Nc2cnn(C3CCCC3O)c2Cl)nc2[nH]ccc12 (racemic) [Example E36, (±)-2-(5-chloro-4-((4-ethoxy-7H-pyrrolo-[2,3-d]-pyrimidin-2-yl)amino)-1H-pyrazol-1-yl)cyclopentanol] |
| ≤ 100 nM | CCOc1nc(Nc2cnn(C3CCC(N4CCOCC4)CC3)c2Cl)nc2[nH]ccc12 (stereo not shown) [Example E149, N-(5-chloro-1-(4-morpholinocyclohexyl)-1H-pyrazol-4-yl)-4-ethoxy-7H-pyrrolo[2,3-d] pyrimidin-2-amine] |
| ≤ 100 nM | CCOc1nc(Nc2cnn(CC(C)(C)C#N)c2C)nc2[nH]ccc12 [Example E62, 3-(4-((4-ethoxy-7H-pyrrolo-[2,3-d]pyrimidin-2-yl)amino)-5-methyl-1H-pyrazol-1-yl)-2,2-dimethylpropanenitrile] |
| ≤ 100 nM | CCOc1nc(Nc2cnn(CCOC)c2C)nc2[nH]ccc12 [Example E9, 4-ethoxy-N-(1-(2-methoxyethyl)-5-methyl-1H-pyrazol-4-yl)-7H-pyrrolo-[2,3-d]pyrimidin-2-amine] |
| ≤ 100 nM | CCOc1nc(Nc2cnn(C3COC3)c2Cl)nc2[nH]ccc12 [Example E35, N-(5-chloro-1-(oxetan-3-yl)-1H-pyrazol-4-yl)-4-ethoxy-7H-pyrrolo-[2,3-d]pyrimidin-2-amine] |
| ≤ 100 nM | CCOc1nc(Nc2cnn(C3CCOCC3)c2C)nc2[nH]cc(C#N)c12 [Example E46, 4-ethoxy-2-((5-methyl-1-(tetrahydro-2H-pyran-4-yl)-1H-pyrazol-4-yl)-amino)-7H-pyrrolo-[2,3-d]-pyrimidine-5-carbonitrile] |
| ≤ 100 nM | CCOc1nc(Nc2cnn(C3CCOCC3)c2Cl)nc2[nH]ccc12 [Example E22, N-(5-chloro-1-(tetrahydro-2H-pyran-4-yl)-1H-pyrazol-4-yl)-4-ethoxy-7H-pyrrolo-[2,3-d]-pyrimidin-2-amine] |
